Reference: US4879385A, “Substituted hydroxyalkyl-azoles and their use as antimycotics” (Bayer Aktiengesellschaft, priority 1982, dated 1989)

How the values were obtained:
[1] = system: fungi (antimycotic); settings: prior art DE-OS 2,623,129 and DE-OS 2,851,086; cited from earlier work
[2] = system: Candida; assay: Antimycotic in vivo activity (oral) in candidosis of mice; settings: mice SPF-CF, i.v. Candida; oral 25-100 mg/kg 1 h before and 7 h after infection
Procedure: Mice of the SPF-CF type were infected intravenously with 1-2×10^6logarithmically growing Candida cells, which were suspended in physiological sodium chloride solution. The animals were treated orally one hour before and seven hours after the infection, with, in each case, 25-100 mg/kg of body weight of the formulations.
Untreated animals died 3 to 6 days after infection. The survival rate on the 6th day after infection was about 5% in the case of untreated control animals.

[3] = system: dermatophytes, moulds and yeasts; assay: Antimycotic in vitro activity, series dilution test (overall comparison); format: cell-based; settings: 20° C., 24 to 96 hours
Procedure: The in vitro tests were carried out in series dilution test with germ inocula of an average of 5×10^4 germs/ml of substrate. The nutrient medium was (a) for dermatophytes and moulds: Sabourand's milieu d'epreuve and (b) for yeasts: meat extract/glucose broth. The incubation temperature was 20° C. and the duration of incubation was 24 to 96 hours in the case of yeasts, and 96 hours in the case of dermatophytes and moulds.

Row | SMILES | antimycotic properties [1] | action in vivo compared with compounds (A), (B) and (C) [2] | antimycotic action in vitro compared with compounds (A), (B) and (C) [3]
1 | OC(Cc1ccc(Cl)cc1)(Cn1ccnc1)c1ccc(Cl)cc1 (stereo not drawn) [(A), 1,2-bis(4-chlorophenyl)-2-hydroxy-3-(imidazol-1-yl)-propane] | good antimycotic properties |  | 
2 | OC(Cn1ccnc1)(c1cccc(Cl)c1)c1cccc(Cl)c1 [(B), 1,1-bis(3-chlorophenyl)-1-hydroxy-2-(imidazol-1-yl)-ethane] | good antimycotic properties |  | 
3 | OC(Cc1ccccc1)(Cn1cncn1)c1ccc(-c2ccccc2)cc1 (stereo not drawn) [(C), 2-(4-biphenyl)-2 hydroxy-1-phenyl-3-(1,2,4-triazol-1-yl)-propane] | good antimycotic properties |  | 
4 | CC(C)(Cc1ccc(Cl)cc1)C(O)(Cn1ccnc1)c1ccc(Cl)cc1 (stereo not drawn) [Example 1, 2,4-bis(4-chlorophenyl)-3,3-dimethyl-1-(imidazol-1-yl)-butan-2-ol] |  | better action than the compounds (A), (B) and (C) | better antimycotic action than the compounds (A), (B) and (C)
5 | CC(C)(Oc1ccc(Cl)cc1)C(O)(Cn1cncn1)c1ccc(Cl)cc1.Cl (stereo not drawn) [Example 2, 3-(4-chlorophenoxy)-2-(4-chlorophenyl)-3-methyl-1-(1,2,4-triazol-1-yl)-butan-2-ol hydrochloride] |  |  | better antimycotic action than the compounds (A), (B) and (C)
6 | CC(C)(c1ccc(Cl)cc1)C(O)(Cn1ccnc1)c1ccc(Cl)cc1 (stereo not drawn) [Example 3] |  |  | better antimycotic action than the compounds (A), (B) and (C)
7 | CC(C)(Cc1ccc(Cl)cc1)C(O)(Cn1cncn1)c1ccc(Cl)cc1 (stereo not drawn) [Example 4] |  | better action than the compounds (A), (B) and (C) | better antimycotic action than the compounds (A), (B) and (C)
8 | CC(C)(c1ccc(Cl)cc1)C(O)(Cn1cncn1)c1ccc(Cl)cc1 (stereo not drawn) [Example 5] |  |  | better antimycotic action than the compounds (A), (B) and (C)
9 | CC(C)(Cc1ccccc1)C(O)(Cn1cncn1)c1ccc(F)cc1 (stereo not drawn) [Example 6] |  |  | better antimycotic action than the compounds (A), (B) and (C)
10 | CC(C)(Cc1ccc(Cl)cc1)C(O)(Cn1ccnc1)c1ccc(F)cc1 (stereo not drawn) [Example 8] |  | better action than the compounds (A), (B) and (C) | better antimycotic action than the compounds (A), (B) and (C)
11 | CC(C)(Cc1ccc(Cl)cc1)C(O)(Cn1cncn1)c1ccc(F)cc1 (stereo not drawn) [Example 9] |  | better action than the compounds (A), (B) and (C) | better antimycotic action than the compounds (A), (B) and (C)
12 | CC(C)(Cc1ccc(F)cc1)C(O)(Cn1ccnc1)c1ccc(Cl)cc1 (stereo not drawn) [Example 10] |  |  | better antimycotic action than the compounds (A), (B) and (C)
13 | CC(C)(Cc1ccc(F)cc1)C(O)(Cn1cncn1)c1ccc(Cl)cc1 (stereo not drawn) [Example 11] |  | better action than the compounds (A), (B) and (C) | better antimycotic action than the compounds (A), (B) and (C)
14 | CC(C)(Cc1ccc(Cl)cc1Cl)C(O)(Cn1ccnc1)c1ccc(F)cc1 (stereo not drawn) [Example 12] |  |  | better antimycotic action than the compounds (A), (B) and (C)
15 | CC(C)(Sc1ccc(Cl)cc1)C(O)(Cn1cncn1)c1ccc(Cl)cc1 (stereo not drawn) [Example 14] |  |  | better antimycotic action than the compounds (A), (B) and (C)
16 | CC(C)(Cc1ccc(F)cc1)C(O)(Cn1cncn1)c1ccccc1 (stereo not drawn) [Example 15] |  |  | better antimycotic action than the compounds (A), (B) and (C)
17 | CC(C)(Sc1ccc(Cl)cc1)C(O)(Cn1ccnc1)c1ccc(Cl)cc1 (stereo not drawn) [Example 16] |  |  | better antimycotic action than the compounds (A), (B) and (C)
18 | CC(C)(Oc1ccc(Cl)cc1Cl)C(O)(Cn1ccnc1)c1ccc(Cl)cc1 (stereo not drawn) [Example 17] |  | better action than the compounds (A), (B) and (C) | 

Row | SMILES | antimycotic properties [1] | action in vivo compared with compounds (A), (B) and (C) [2] | antimycotic action in vitro compared with compounds (A), (B) and (C) [3]
19 | CC(C)(Oc1ccc(Cl)cc1Cl)C(O)(Cn1cncn1)c1ccc(Cl)cc1 (stereo not drawn) [Example 18] |  | better action than the compounds (A), (B) and (C) | better antimycotic action than the compounds (A), (B) and (C)
20 | CC(C)(Oc1ccccc1Cl)C(O)(Cn1cncn1)c1ccc(Cl)cc1 (stereo not drawn) [Example 19] |  |  | better antimycotic action than the compounds (A), (B) and (C)
21 | CC(C)(Oc1ccccc1Cl)C(O)(Cn1ccnc1)c1ccc(Cl)cc1 (stereo not drawn) [Example 20] |  |  | better antimycotic action than the compounds (A), (B) and (C)
22 | Cc1cc(Cl)ccc1OC(C)(C)C(O)(Cn1cncn1)c1ccc(Cl)cc1 (stereo not drawn) [Example 21] |  |  | better antimycotic action than the compounds (A), (B) and (C)
23 | CC(C)(Oc1ccccc1)C(O)(Cn1cncn1)c1ccc(Cl)cc1 (stereo not drawn) [Example 22] |  |  | better antimycotic action than the compounds (A), (B) and (C)
24 | CC(C)(Oc1ccccc1)C(O)(Cn1ccnc1)c1ccc(Cl)cc1 (stereo not drawn) [Example 23] |  |  | better antimycotic action than the compounds (A), (B) and (C)
25 | Cc1ccc(C(C)(C)C(O)(Cn2ccnc2)c2ccc(Cl)cc2)cc1 (stereo not drawn) [Example 25] |  |  | better antimycotic action than the compounds (A), (B) and (C)
26 | CCC(C)(COc1ccc(Cl)cc1)C(O)(Cn1cncn1)c1ccc(Cl)cc1 (stereo not drawn) [Example 26] |  | better action than the compounds (A), (B) and (C) | better antimycotic action than the compounds (A), (B) and (C)
27 | CCC(C)(Oc1ccc(Cl)cc1)C(O)(Cn1cncn1)c1ccc(Cl)cc1 (stereo not drawn) [Example 27] |  | better action than the compounds (A), (B) and (C) | 
28 | CC(C)(Cc1ccc(F)cc1)C(O)(Cn1cncn1)c1ccc(F)cc1 (stereo not drawn) [Example 28] |  | better action than the compounds (A), (B) and (C) | better antimycotic action than the compounds (A), (B) and (C)
29 | CC(C)(Oc1ccc(Cl)cc1)C(O)(Cn1cncn1)c1ccc(F)cc1 (stereo not drawn) [Example 29] |  | better action than the compounds (A), (B) and (C) | better antimycotic action than the compounds (A), (B) and (C)
30 | CC(C)(Oc1ccc(F)cc1)C(O)(Cn1cncn1)c1ccc(F)cc1 (stereo not drawn) [Example 30] |  | better action than the compounds (A), (B) and (C) | 
31 | CC(C)(Oc1ccc(Cl)cc1)C(O)(Cn1ccnc1)c1ccc(F)cc1 (stereo not drawn) [Example 31] |  | better action than the compounds (A), (B) and (C) | 
32 | CC(C)(Oc1ccc(F)cc1)C(O)(Cn1ccnc1)c1ccc(F)cc1 (stereo not drawn) [Example 32] |  | better action than the compounds (A), (B) and (C) | 
33 | CC(C)(Cc1ccc(F)cc1)C(O)(Cn1ccnc1)c1ccc(F)cc1 (stereo not drawn) [Example 33] |  | better action than the compounds (A), (B) and (C) | 
34 | CCC(C)(Oc1ccc(F)cc1)C(O)(Cn1cncn1)c1ccc(F)cc1 (stereo not drawn) [Example 34] |  | better action than the compounds (A), (B) and (C) | 
35 | CCC(C)(Oc1ccc(Cl)cc1)C(O)(Cn1cncn1)c1ccc(F)cc1 (stereo not drawn) [Example 35] |  | better action than the compounds (A), (B) and (C) | better antimycotic action than the compounds (A), (B) and (C)
